{"source": "patent US20260258077A1", "about": "“PROTEIN FOLDING AGENT, COMPOUND, PROTEIN FOLDING METHOD, PHARMACEUTICAL COMPOSITION, AND AGENT FOR SUPPRESSING CYTOTOXICITY BY TRANSITION METAL” (National University Corporation Tokyo University of …, priority 2023, published 2026)", "key": {"HeLa cells": {"test_system": "HeLa cells", "assay": "Suppressive effect on cytotoxicity of Cu(II) ions (Cell Counting Kit-8)", "type": "cell-based", "details": "100 μM Cu(II); single oxidized agent added four hours later; read 24 hours after CuCl2 (FIG. 15)", "description": "HeLa cells were seeded in a 96-well plate at 5,000 cells/well and cultured at 37° C. in a 5% CO2 environment for 24 hours. Subsequently, a CuCl2 aqueous solution was added thereto to obtain 100 μM Cu(II). Four hours later, a mixed solution (10:1) of a certain amount of the compound (A-1-1-1) and the compound (B-1-1-1), or a mixed solution (10:1) of oxidized glutathione (GSSG) and reduced glutathione (GSH) was added. 24 hours after the addition of CuCl2, a Cell Counting Kit-8 solution was added thereto. Two hours later, an absorbance at 450 nm was measured to estimate the cell viability.\nHeLa cells were seeded in a 96-well plate at 5,000 cells/well and cultured at 37° C. in a 5% CO2 environment for 24 hours. Subsequently, a CuCl2 aqueous solution was added thereto to obtain 100 μM Cu(II). Four hours later, a certain amount of the compound (B-1-1-1) solution or oxidized glutathione (GSSG) solution was added thereto. 24 hours after the addition of CuCl2, a Cell Counting Kit-8 solution was added thereto. Two hours later, the absorbance at 450 nm was measured to estimate the cell viability."}, "[1]": {"biological_target": "T1, reduced and denatured Bovine Pancreatic Trypsin Inhibitor (BPTI) (Bos taurus, UniProt P00974)", "T1 construct": "purchased Pro-Spec-Tany TechnoGene Ltd. (Rehovot, Israel)", "assay": "Protein folding test of reduced and denatured BPTI (reverse-phase HPLC)", "type": "biochemical", "details": "for formation proportion of native structural BPTI in the presence of Zn(II) ions: 90 μM Zn(II) (ZnSO4), 90 μM (B-1-2-1) or 900 μM GSSG alone, 1 hour (FIG. 25)", "description": "Bovine Pancreatic Trypsin Inhibitor (BPTI) having three disulfide bonds in the molecule was used as a model protein for analyzing a folding process.\nBPTI (10 mg) was dissolved in 0.1 M Tris-HCl (pH: 8.0, 1.0 mL) containing 30 mM 1,4-dithiothreitol and 8 M urea, incubated at 50° C. for 3 hours, and purified by reverse-phase HPLC. HPLC purification was carried out using a PU-4180 pump and a UV-4075 detector manufactured by JASCO Corporation (Tokyo, Japan), and an InertSustain C18 column (4.6 mm×250 mm) manufactured by GL Sciences Inc. (Tokyo, Japan) at a flow rate of 1.0 mL·min^−1. The collected fractions were freeze-dried, and the obtained powder was stored at −30° C.\nFor analysis of the folding process by reverse-phase HPLC, Primaide HPLC system manufactured by Hitachi High-Tech Corporation (Tokyo, Japan) and TSKgel Protein C4-300 column (§ 4.6×150 mm) manufactured by Tosoh Corporation (Tokyo, Japan) were used. […]\nIn the presence of 200 μM of the compound (B-1-1-1) and 1.0 mM of the compound (A-1-1-1), reduced and denatured BPTI (30 μM) was dissolved in a Tris-HCl buffer (50 mM Tris-HCl, 300 mM NaCl, pH: 7.5) and incubated at 30° C. Reaction solutions (200 μL) collected at 0 minutes, 1 minute, 5 minutes, 10 minutes, 30 minutes, and 60 minutes after the start of the reaction were mixed with an equivalent amount of 1 M hydrochloric acid, and analyzed by reverse-phase HPLC. Tracing was performed at a flow rate of 1.0 mL·min^−1 and a wavelength of 229 nm, and a linear gradient was applied to the elution solvent ratio during measurement (solvent A: water containing 0.05% TFA, solvent B: acetonitrile containing 0.05% TFA; the amount of solvent A: 95% at 0 minutes, 80% at 15 minutes, 65% at 45 minutes). […]\nIn the presence of 200 μM oxidized glutathione (GSSG) and 1.0 mM reduced glutathione (GSH), or in the presence of 200 μM of the compound (B-1-1-1) and 1.0 mM of the compound (A-1-1-1), ZnSO4 and reduced and denatured BPTI (30 μM) were dissolved in a Tris-HCl buffer (50 mM Tris-HCl, 300 mM NaCl, pH: 7.5) and incubated at 30° C. The reaction solution (200 μL) 1 hour after the start of the reaction was mixed with an equivalent amount of 1 M hydrochloric acid and analyzed by reverse-phase HPLC. Tracing was performed at a flow rate of 1.0 mL·min^−1 and a wavelength of 229 nm, and a linear gradient was applied to the elution solvent ratio during measurement (solvent A: water containing 0.05% TFA, solvent B: acetonitrile containing 0.05% TFA; the amount of solvent A: 95% at 0 minutes, 80% at 15 minutes, 65% at 45 minutes).\nIn the presence of 90 μM of the compound (B-1-2-1) and 900 μM of the compound (A-1-2-1), or in the presence of 90 μM of oxidized glutathione […] and 900 μM of reduced glutathione […], reduced and denatured BPTI (30 μM) was dissolved in a Tris-HCl buffer (50 mM Tris-HCl, 300 mM NaCl, pH: 7.5) and incubated at 30° C. The reaction solution (200 μL) 1 hour after the start of the reaction was mixed with an equivalent amount of 1 M hydrochloric acid and analyzed by reverse-phase HPLC. Tracing was performed at a flow rate of 1.0 mL·min^−1 and a wavelength of 229 nm, and a linear gradient was applied to the elution solvent ratio during measurement (solvent A: water containing 0.05% TFA, solvent B: acetonitrile containing 0.05% TFA; the amount of solvent A: 95% at 0 minutes, 80% at 15 minutes, 65% at 45 minutes).\nIn the presence of 90 μM of the compound (B-1-2-1), 90 μM of Zn(II) ion (ZnSO4) and reduced and denatured BPTI (30 μM) were dissolved in a Tris-HCl buffer (50 mM Tris-HCl, 300 mM NaCl, pH: 7.5) and incubated at 30° C. The reaction solution (200 μL) 1 hour after the start of the reaction was mixed with an equivalent amount of 1 M hydrochloric acid and analyzed by reverse-phase HPLC. […]"}}}
{"molecule": "C1CNCCNCCCN(CCSSCCN2CCCNCCNCCCNCC2)CCNC1", "note": "[compound (B-1-1-1)]", "values": [{"measurement": "improvement of cell viability of HeLa cells exposed to Cu(II) ions", "setting": "HeLa cells", "result": "greatly improved the viability of HeLa cells"}]}
{"molecule": "C1CNCCN(CCSSCCN2CCNCCNCC2)CCN1", "note": "[compound (B-1-2-1)]", "values": [{"measurement": "formation of native structural BPTI in the absence of Zn(II) ions", "setting": "[1]; 90 μM (B-1-2-1) alone, Zn(II) 0 μM, 1 hour (FIG. 23)", "result": "native structural BPTI was formed even at a Zn(II) ion concentration of 0 μM"}, {"measurement": "formation proportion of native structural BPTI with increasing Zn(II) ion concentration", "setting": "[1]; 90 μM (B-1-2-1) alone, ZnSO4, 1 hour, 30° C. (FIG. 23)", "result": "formation proportion of native structural BPTI increased as the Zn(II) ion concentration increased"}, {"measurement": "formation proportion of native structural BPTI in the presence of Zn(II) ions", "setting": "[1]", "result": "formation proportion of native structural BPTI was larger in the presence of Zn(II) ions than in the absence of Zn(II) ions"}]}
{"molecule": "C1CN2CCSSCCN(CCN1)CC2", "note": "[compound (B-2-1-1)]", "values": [{"measurement": "protein folding promotion effect of a catalytic amount", "setting": "[1]; 6 μM (B-2-1-1), NiCl2 0 μM, BPTI 30 μM (FIG. 31)", "result": "had the protein folding promotion effect"}, {"measurement": "protein folding promotion effect of a catalytic amount in the presence of Ni(II) ions", "setting": "[1]; 6 μM (B-2-1-1), NiCl2 1 μM, BPTI 30 μM (FIG. 32)", "result": "significantly improved as compared with the absence of Ni(II) ions"}, {"measurement": "protein folding promotion effect of a catalytic amount in the presence of Cu(II) ions", "setting": "[1]; 30 μM (B-2-1-1), CuCl2 5 μM, BPTI 30 μM (FIG. 33)", "result": "significantly improved as compared with the absence of Cu(II) ions"}, {"measurement": "formation proportion of native structural BPTI with increasing Cu(II) ion concentration", "setting": "[1]; 90 μM (B-2-1-1), CuCl2, 1 hour (FIG. 29)", "result": "formation proportion of native structural BPTI increased as the Cu(II) ion concentration increased"}, {"measurement": "formation proportion of native structural BPTI with increasing Ni(II) ion concentration", "setting": "[1]; 90 μM (B-2-1-1), NiCl2, 1 hour (FIG. 30)", "result": "formation proportion of native structural BPTI increased as the Ni(II) ion concentration increased"}, {"measurement": "folding versus theoretical yield of a stoichiometric reaction", "setting": "[1]; catalytic amount of (B-2-1-1), presence of Ni(II) ions or Cu(II) ions", "result": "enhancement of folding that greatly exceeded the theoretical yield expected for a stoichiometric reaction"}, {"measurement": "protein folding promotion effect", "setting": "[1]; no metal ion, 90 μM agent, 1 hour, 30° C. (FIG. 28)", "result": "protein folding promotion effect comparable to that of GSSG"}]}
{"molecule": "oxidized glutathione [GSSG, reference compound]", "values": [{"measurement": "formation proportion of native structural BPTI in the presence of Zn(II) ions", "setting": "[1]", "result": "proteins aggregated and folding hardly proceeded"}, {"measurement": "improvement of cell viability of HeLa cells exposed to Cu(II) ions", "setting": "HeLa cells", "result": "had little effect on improving the cell viability of HeLa cells"}]}
